Measurements taken from US12077607B2, “Functional and therapeutic effects of PAR4 cleavage by cathepsin G” (UNIVERSITY OF UTAH RESEARCH FOUNDATION, priority 2021, dated 2024).
Entries after “also recorded” stand apart in the source; their conditions may differ.

How the values were obtained:
PAR4-B (SEQ ID NO: 7) = target: T1, PAR4-B (SEQ ID NO: 7) (Homo sapiens, UniProt Q96RI0); experiment: PAR4 peptide cleavage analysis by LC-MS/MS, PAR4-B; type: biochemical; conditions: thrombin 100 U/mL or 100 nM, CatG 400 nM, 37° C.
T1 construct: purchased BIOMATIK (Wilmington, DE, USA); host or cells: chemical synthesis
Method: PAR-4 Peptide and Cleavage Analysis. PAR4 synthetic peptides were incubated with protease, snapped frozen, and sent for mass spectrometry analysis. PAR-4B ([…]; SEQ ID NO: 7) and PAR-4C ([…]; SEQ ID NO: 8) were synthesized by BIOMATIK (Wilmington, DE, USA). PAR4-B and PAR4-C were incubated with vehicle, thrombin (100 nM) or cathepsin G (400 nM) at 37° C. for 15 minutes to an hour depending on the experimental condition. After digestion with the indicated protease, reactions were snapped frozen and sent to the University of Arizona, Analytical and Biological Mass Spectrometry Core Facility (Tucson, Arizona) for analysis. LC-MS/MS analysis was done on a Q Exactive Plus mass spectrometer (Thermo Fisher Scientific, San Jose, CA) equipped with an EASY-Spray nanoESI source. Peptides (500 ng) were injected onto an Acclaim Pepmap 100 trap column (75 micron ID x 2 cm, Thermo Scientific), washed for 10 min at 3% mobile phase B (acetonitrile, 0.1% formic acid, mobile phase A consisting of water and 0.1% formic acid) then eluted onto an Acclaim PepMap RSLC analytical column (75 micron ID x 25 cm, Thermo Scientific using a 3-20% gradient of B over 40 min, 20-50% solvent B over 5 min, 50-95% of solvent B over 5 min, then a hold of solvent 95% B for 10 min, and finally a return to 3% solvent B for 1 min, then a hold at 3% B for 10 min. Flow rates were 300 nL/min using a Dionex Ultimate 3000 RSLCnano System (Thermo Scientific). […] The peptide identification results were further analyzed with Scaffold Q+S v 4.8.7 (Proteome Software Inc., Portland OR), a program that relies on various search engine results (i.e.: Sequest, X!Tandem, MASCOT) and which uses Bayesian statistics to reliably identify more spectra9.

mouse washed platelets = experiment: Platelet aggregation of mouse washed platelets; type: cell-based; conditions: 1 U/mL human thrombin, 1 μM human CatG or 1 mM RA-11mer
Text: Animal studies. Mouse platelets were isolated as previously described from C57BL/6 mice (Denorme et al., Blood. 2020; 135(6):429-440). Dog platelets were isolated from whole blood drawn into ACD using a similar isolation procedure as for human platelets. All animal studies were approved by the University of Utah Institutional Animal Care and Use Committee (18-10012).
Platelet and neutrophil isolation. Platelets and neutrophils were isolated as previously described (Yost et al., J Clin Invest. 2016; 126(10):3783-3798). Platelet isolation from dogs, rats and mice was approved by the IACUC. Platelet activation and aggregation were performed as previously described (Manne et al., Blood. 2020; 136(11): 1317-1329).
Platelet isolation, aggregation, and activation. Human washed platelets were prepared and resuspended in Tyrode's Buffer at 2×10^8/mL as described (Edelstein et al., Nat Med. 2013; 19(12):1609-1616). For human and dog platelet comparisons, platelets were prepared using a modified human platelet protocol with final concentrations of […] (Cayman Chemical, Ann Arbor, MI, USA) used during centrifugation steps. Centrifugations after Tyrode's washes was decreased to 1,250×g as described in Cremer et al., PLOS One. 2019; 14(11): e0224891. Platelet aggregation was measured under stirring conditions at 37° C. using a PAP-8E aggregometer after treatment with the following agonists: arachidonic acid (Bio/Data Corporation, Horsham, PA, USA), cathepsin G, elastase, proteinase 3 (Athens Research Group), α-thrombin (Sigma, St. Louis, MO, USA), PAR-1 peptide (SFLLRN) (GL Biochem, China). P-selectin and PAC-1 were measured as previously described (Yee et al., J Thromb Haemost. 2006; 4(9):2043-2050; Tourdot et al., Arterioscler Thromb Vasc Biol. 2014; 34(12):2644-2650).

PAR4-C (SEQ ID NO: 8) = target: T2, PAR4-C (SEQ ID NO: 8) (Homo sapiens, UniProt Q96RI0); experiment: PAR4 peptide cleavage analysis by LC-MS/MS, PAR4-C; type: biochemical; conditions: CatG 400 nM, 37° C., 15 minutes; thrombin
T2 construct: purchased BIOMATIK (Wilmington, DE, USA); host or cells: chemical synthesis
Method: PAR-4 Peptide and Cleavage Analysis. PAR4 synthetic peptides were incubated with protease, snapped frozen, and sent for mass spectrometry analysis. PAR-4B ([…]; SEQ ID NO: 7) and PAR-4C ([…]; SEQ ID NO: 8) were synthesized by BIOMATIK (Wilmington, DE, USA). PAR4-B and PAR4-C were incubated with vehicle, thrombin (100 nM) or cathepsin G (400 nM) at 37° C. for 15 minutes to an hour depending on the experimental condition. After digestion with the indicated protease, reactions were snapped frozen and sent to the University of Arizona, Analytical and Biological Mass Spectrometry Core Facility (Tucson, Arizona) for analysis. LC-MS/MS analysis was done on a Q Exactive Plus mass spectrometer (Thermo Fisher Scientific, San Jose, CA) equipped with an EASY-Spray nanoESI source. […] The peptide identification results were further analyzed with Scaffold Q+S v 4.8.7 (Proteome Software Inc., Portland OR), a program that relies on various search engine results (i.e.: Sequest, X!Tandem, MASCOT) and which uses Bayesian statistics to reliably identify more spectra9.

T1 sequence (Q96RI0 36-58 limits assumed): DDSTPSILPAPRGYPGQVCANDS
T2 sequence (Q96RI0 57-78 limits assumed): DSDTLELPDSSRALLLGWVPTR

cleavage of PAR4-B peptide (PAR4-B (SEQ ID NO: 7); listed as Thrombin)	Substance	cleavage of PAR4-B peptide (PAR4-B (SEQ ID NO: 7))	platelet aggregation, species comparison: mice (mouse washed platelets)	cleavage of PAR4-C peptide (PAR4-C (SEQ ID NO: 8))
proteolyzed virtually all	thrombin	cleaved by thrombin between amino acids Arg47 and Gly48	induced platelet aggregation	failed to cleave
	CatG: serine protease cathepsin G released by activated neutrophils	largely intact; also recorded: little cleavage	only induced platelet aggregation in humans and dogs	cleavage between Ser67 (S67)-Arg68 (R68)
